Measurements taken from US6551999B1, “Angiogenesis inhibitor” (Senju Pharmaceutical Co., Ltd., priority 1995, dated 2003).
Ends that are not written are not given here.

Columns and labels:
trypsin = target: T1, trypsin (UniProt P00760); assay: Assay of trypsin-inhibitory activity (casein substrate); format: biochemical; settings: read-out: Trypsin 50% Inhibitory concentration (IC50); 60 minutes at 30° C., pH 8.0
T1 sequence (P00760 1-246): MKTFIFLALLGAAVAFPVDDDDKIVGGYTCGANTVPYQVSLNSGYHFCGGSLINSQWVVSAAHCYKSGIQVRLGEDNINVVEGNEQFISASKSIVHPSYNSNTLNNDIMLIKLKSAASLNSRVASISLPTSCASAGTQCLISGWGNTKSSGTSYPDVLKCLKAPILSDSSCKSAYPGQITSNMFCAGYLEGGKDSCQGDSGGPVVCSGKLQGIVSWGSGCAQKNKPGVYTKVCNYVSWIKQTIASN
Description: (§1) The activity of papain which is a cysteine protease and of trypsin (Sigma) which is a serine protease was assayed in accordance with the method described in the literature [Anal. Biochem., 208, 387-392, 1993]. Thus, to a solution containing 0.5 mg/ml casein, 50 mM Tris-HCl (pH 8.0), 20 mM dithiothreitol, and 0.2 mM EDTA was added 2.5 μl of dimethyl sulfoxide containing a varying concentration of the test drug as well as 0.03 unit of papain or trypsin to initiate the reaction. The final liquid volume was adjusted to 250 μl. After 60 minutes of reaction at 30° C., 100 μl of the reaction mixture was transferred to another vessel and following addition of 50 μl of purified water and 100 μl of 50% Coumassie brilliant blue solution, the mixture was allowed to stand at room temperature for 15 minutes. The absorbance of the mixture was then measured at 595 nm. Using the value found similarly by adding 2.5 μl of dimethyl sulfoxide not containing the test drug as control and the value found without addition of the enzyme as blank, IC50 was determined in the same manner as above.

papain = target: T2, papain (Carica papaya, UniProt P00784); assay: Assay of papain-inhibitory activity (casein substrate); format: biochemical; settings: 60 minutes at 30° C., pH 8.0
T2 sequence (P00784 134-345): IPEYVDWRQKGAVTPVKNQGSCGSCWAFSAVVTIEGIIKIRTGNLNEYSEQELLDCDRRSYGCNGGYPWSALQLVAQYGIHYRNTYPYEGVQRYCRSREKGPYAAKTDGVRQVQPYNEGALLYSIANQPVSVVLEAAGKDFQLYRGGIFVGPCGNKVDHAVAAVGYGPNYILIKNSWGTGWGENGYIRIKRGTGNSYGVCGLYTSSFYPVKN
Description: as §1

μ-calpain = target: T3, μ-calpain (Homo sapiens, UniProt P07384); assay: μ-Calpain-inhibitory activity (casein substrate); format: biochemical; settings: 60 minutes at 30° C., pH 7.4, 4 mM calcium chloride
T3 construct: purchased Nakalai Tesque
T3 sequence (P07384 1-714): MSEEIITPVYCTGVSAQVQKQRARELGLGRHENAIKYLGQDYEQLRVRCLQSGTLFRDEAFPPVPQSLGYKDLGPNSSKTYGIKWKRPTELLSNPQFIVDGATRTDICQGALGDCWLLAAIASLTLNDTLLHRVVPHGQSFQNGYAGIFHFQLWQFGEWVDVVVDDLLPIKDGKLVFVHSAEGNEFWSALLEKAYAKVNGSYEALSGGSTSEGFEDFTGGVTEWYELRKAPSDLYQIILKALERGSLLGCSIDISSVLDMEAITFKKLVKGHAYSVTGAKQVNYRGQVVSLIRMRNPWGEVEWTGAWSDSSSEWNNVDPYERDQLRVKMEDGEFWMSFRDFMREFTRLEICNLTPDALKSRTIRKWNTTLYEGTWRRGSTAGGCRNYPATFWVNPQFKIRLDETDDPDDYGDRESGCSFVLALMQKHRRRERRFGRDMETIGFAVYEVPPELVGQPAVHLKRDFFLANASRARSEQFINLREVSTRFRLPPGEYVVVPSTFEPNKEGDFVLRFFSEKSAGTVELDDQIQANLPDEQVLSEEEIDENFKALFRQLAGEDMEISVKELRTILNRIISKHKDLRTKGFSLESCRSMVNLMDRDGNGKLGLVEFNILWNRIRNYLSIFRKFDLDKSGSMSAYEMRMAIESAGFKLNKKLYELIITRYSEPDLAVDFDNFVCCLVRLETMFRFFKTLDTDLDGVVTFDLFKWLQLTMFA
T3 sequence (P04632 1-268 partner): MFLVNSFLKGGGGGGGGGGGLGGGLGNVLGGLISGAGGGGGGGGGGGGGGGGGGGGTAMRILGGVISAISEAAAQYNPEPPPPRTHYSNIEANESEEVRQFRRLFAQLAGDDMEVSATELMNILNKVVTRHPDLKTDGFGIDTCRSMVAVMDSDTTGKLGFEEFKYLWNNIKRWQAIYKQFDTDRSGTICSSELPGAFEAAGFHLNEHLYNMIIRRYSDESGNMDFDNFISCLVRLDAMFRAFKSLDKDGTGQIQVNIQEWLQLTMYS
Description: Thus, to a solution containing 0.5 mg/ml casein, 50 mM Tris-HCl (pH 7.4), 20 mM dithiothreitol, and 4 mM calcium chloride was added 2.5 μl of a dimethyl sulfoxide solution containing a varying concentration of the test drug as well as 0.03 unit of μcalpain to initiate the reaction. The final liquid volume was 250 μl. After 60 minutes of reaction at 30° C., 100 μl of the reaction mixture was transferred to another vessel, to which 50 μl of purified water and 100 μl of 50% Coumassie brilliant blue solution were added. […] As a control, 2.5 μl of dimethyl sulfoxide not containing the test drug was added and the mixture was treated in the same manner as above. […] Similarly, the value found by adding 0.2 mM EDTA in lieu of 4 mM aqueous calcium chloride solution was used as the blank value. […] [formula]

cathepsin L = target: T4, cathepsin L (Homo sapiens, UniProt P07711); assay: Assay of cathepsin L-inhibitory activity (Z-Phe-Arg-MCA); format: biochemical; settings: 20 minutes at 30° C., pH 5.5
T4 construct: purchased Cosmo Bio
Description: The activity of cathepsin L (Cosmo Bio), a cysteine protease, was assayed by the method described in the literature [Methods in Enzymology, 80, 535-561, 1981]. Thus, to a solution containing 85 mM acetate buffer (pH 5.5), 2 mM dithiothreitol, 1 mM EDTA, 2 μg cathepsin L, and a varying concentration of the test compound was added 50 μl of 20 μM carbobenzoxy-L-phenylalanyl-L-arginine-4-methylcoumaryl-7-amide (Z-Phe-Arg-MCA) to initiate the reaction at the final liquid volume of 200 μl. After 20 minutes of reaction at 30° C., 20 μl of 1 M Tris-HCl (pH 8.0) was added so as to stop the reaction. The amount of liberated 4-methyl-7-aminocoumarin was determined with a fluorospectrometer at an excitation wavelength of 360 nm and a fluorescent emission wave length of 450 nm. Using the value found without addition of the test drug as control and the value found without addition of the enzyme as blank, IC50 was determined in the same manner as above.

[1] = system: angiogenesis in cornea of guinea pig; assay: Angiogenesis in cornea of guinea pig by transplantation of bFGF-containing pellet; format: in vivo; settings: 9 days posttransplantation; for Observation of cornea with a slit lamp: appearance of newly formed blood vessels compared to the control group: test pellet (27 mer calpastatin peptide 0.03 and 0.1 μmole, leupeptin 0.1 μmole) together with bFGF (500 ng) pellet; for Wet weight of cornea compared to the control group / Amount of albumin in cornea compared to the control group: test pellet together with bFGF pellet; for Amount of albumin in cornea compared to the control group: SDS-PAGE image analysis
Description: (1) Method for Preparing Pellets for Transplantation
A solution (5 μl) of 8% ethylene vinyl acetate copolymer (EVA) in dichloromethane was dropped on a plate made of Tefron, air-dried, and 0.0167 w/v % bFGF (3 μl) was dropped thereon and air-dried. After drying, the obtained product was rounded into a small rod to give a bFGF (500 ng)-containing pellet.
Using a test solution instead of 0.0167 w/v % bFGF, a test solution-containing pellet was prepared in the same manner as above. The test solution-containing pellets were prepared to contain 27 mer calpastatin peptide (0.03 μmole and 0.1 μmule/pellet, Sigma) and leupeptin (0.1 μmole/pellet, PEPTIDE […], INC.).
As a control, a pellet made of EVA alone was prepared and used as a vehicle pellet.
(2) Transplantation of Pellet into Cornea of Guinea Pig
The procedure followed the method of M. Kusaka et al. [Biochem. Biophys. Res. Comm., vol. 174, pp. 1070-1076 (1991)]. That is, male guinea pigs weighing 300-400 g were anesthetized with a 1:1 mixture of Ketalar 50 (ketamin hydrochloride, Sankyo Company, Limited) and Celactal (xylazine hydrochloride, Bayer, Ltd.). A pocket was formed in the intercellular layer of corneal stroma layer of both eyes from corneal limbus to the center of cornea, using a 0.5 mm width ophthalmic spatula. A test solution-containing pellet was inserted into the pocked thus formed, and a bFGF-containing pellet was inserted in adjacency thereto. For prevention of infection, ofloxacin eye ointment [Tarivid eye ointment (ofloxacin 0.3%, manufactured by Santen Pharmaceutical Co., Ltd.) was instilled once immediately after insertion of the pellets. Thereafter, 0.3% lomefloxacin (lomeflon ophthalmic otologic solution, manufactured by Senju Pharmaceutical Co., Ltd.) was instilled once a day for 5 days.
(3) Evaluation of the Effects of Cysteine Protease Inhibitor
The blood vessel newly formed in cornea which is an avascular tissue had high permeability, and the wet weight and plasma content were expected to elevate due to incurrent of plasma components as a result of high permeability. At 9 days posttransplantation of pellet, guinea pigs were euthanized and cornea was collected. The obtained cornea was weighed (wet weight). Then, it was homogenized, and subjected to centrifugation. The obtained water soluble protein was separated by SDS polyacrylamide gel electrophoresis. After electrophoresis, the gel was stained with Coomassie Brilliant Blue. By image analysis (NIH Image 1.31), albumin which is one of the major proteins in plasma was quantitatively assayed. As the standard substance, guinea pig serum albumin was used.

T4 sequence (P07711 114-333, species assumed): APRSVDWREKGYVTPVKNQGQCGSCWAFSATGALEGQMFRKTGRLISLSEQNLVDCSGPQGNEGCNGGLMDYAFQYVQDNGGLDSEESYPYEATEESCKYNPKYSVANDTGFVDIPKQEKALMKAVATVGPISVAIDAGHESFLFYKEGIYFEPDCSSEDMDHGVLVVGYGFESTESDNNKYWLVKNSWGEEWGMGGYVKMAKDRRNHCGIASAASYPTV

In the case of `O=C(O)[C@H]1O[C@@H]1C(=O)N[C@@H](Cc1ccccc1)C(=O)N1CCN(c2ccc(F)cc2)CC1` [Compound 11], the IC50 (trypsin) is reported as over 3 mM, the IC50 (papain) is reported as 110 nM and the IC50 (μ-calpain) is reported as 2900 nM. The IC50 (cathepsin L) was 12 nM.
Work on `CC(C)C[C@H](NC(=O)[C@H]1O[C@@H]1C(=O)O)C(=O)N1CCN(c2ccc(F)cc2)CC1` [Compound 13] yielded an IC50 (trypsin) of over 3 mM, an IC50 (papain) of 79 nM and an IC50 (μ-calpain) of 810 nM. The IC50 (cathepsin L) was 29 nM.
Compound `Cc1ccc(S(=O)(=O)N2CCN(C(=O)[C@H](CC(C)C)NC(=O)[C@H]3O[C@@H]3C(=O)O)CC2)cc1` [Compound 16, (2s,3s)-3-[[[[(1s)-1-[[4-(4-methylphenylsulfonyl)-1-piperazinyl]carbonyl]-3-methyl]butyl]amino]carbonyl]oxiranecarboxylic acid] has an IC50 (trypsin) of over 3 mM, an IC50 (papain) of 210 nM and an IC50 (μ-calpain) of 640 nM. It also gave an IC50 (cathepsin L) of 82 nM.
Compound `CC(C)C[C@H](NC(=O)[C@H]1O[C@@H]1C(=O)O)C(=O)N1CCN(c2ccccc2Cl)CC1` [Compound 17, (2s,3s)-3-[[[[(1s)-1-[[4-(2-chlorophenyl)-1-piperazinyl]carbonyl]-3-methyl]butyl]amino]carbonyl]oxiranecarboxylic acid] has an IC50 (trypsin) of over 3 mM, an IC50 (papain) of 62 nM and an IC50 (μ-calpain) of 350 nM. It also gave an IC50 (cathepsin L) of 27 nM.
With `O=C(O)[C@H]1O[C@@H]1C(=O)NCC(=O)N1CCN(c2ccccc2Cl)CC1` [Compound 22, (2s,3s)-3-[[[[[4-(2-chlorophenyl)-1-piperazinyl]carbonyl]methyl]amino]carbonyl]oxiranecarboxylic acid] the IC50 (trypsin) was over 3 mM, the IC50 (papain) was 4000 nM and the IC50 (μ-calpain) was 18000 nM. It also gave an IC50 (cathepsin L) of 38000 nM.
Work on `CCC(C)[C@H](NC(=O)[C@H]1O[C@@H]1C(=O)O)C(=O)N1CCN(c2ccccc2Cl)CC1` (stereo partly shown) [Compound 24, (2s,3s)-3-[[[[(1s)-1-[[4-(2-chlorophenyl)-1-piperazinyl]carbonyl]-2-methyl]butyl]amino]carbonyl]oxiranecarboxylic acid] yielded an IC50 (trypsin) of over 3 mM, an IC50 (papain) of 47 nM and an IC50 (μ-calpain) of 840 nM. For the same compound, the IC50 (cathepsin L) was 9 nM.
`CC(C)(C)[C@H](NS(=O)(=O)c1ccc2ccccc2c1)C(=O)N[C@H](C=O)Cc1c[nH]c2ccccc12` [Compound 51, N-(2-naphthalenesulfonyl)-L-tert-leucyl-L-tryptophanal] gave an IC50 (μ-calpain) of 1100 nM.
`CC(C)[C@H](NS(=O)(=O)c1ccc(F)cc1)C(=O)NC(C=O)CC1CCCCC1` (stereo partly drawn) [Compound 52, N-(4-fluorophenylsulfonyl)-L-valyl-L-cyclohexylalaninal] showed an IC50 (μ-calpain) of 30 nM.
Work on `CC(C)[C@H](NS(=O)(=O)c1ccc2ccccc2c1)C(=O)NC(C=O)CC1CCCCC1` (stereo partly drawn) [Compound 53, N-(2-naphthalenesulfonyl)-L-valyl-L-cyclohexylalaninal] yielded an IC50 (μ-calpain) of 8.3 nM.
In the case of `CC(C)[C@H](NS(=O)(=O)c1ccc(Cl)cc1)C(=O)NC(C=O)CC1CCCCC1` (stereo partly drawn) [Compound 54, N-(4-chlorophenylsulfonyl)-L-valyl-L-cyclohexylalaninal], the IC50 (μ-calpain) is reported as 14 nM.
With `CC(=O)N[C@@H](CC(C)C)C(=O)N[C@@H](CC(C)C)C(=O)N[C@H](C=O)CCCNC(=N)N` [leupeptin] the “Observation of cornea with a slit lamp: appearance of newly formed blood vessels compared to the control group” value [1] was “the degree of appearance was mild”, the “Wet weight of cornea compared to the control group” value [1] was “suppressed increase in the wet weight of cornea” and the “Amount of albumin in cornea compared to the control group” value [1] was “suppressed increase in the amount of albumin in cornea”.
With “DPMSSTYIEELGKREVTIPPKYRELLA [27 mer calpastatin peptide, from Sigma]” the “Observation of cornea with a slit lamp: appearance of newly formed blood vessels compared to the control group” value [1] was “the degree of appearance was mild”, the “Wet weight of cornea compared to the control group” value [1] was “suppressed increase in the wet weight of cornea” and the “Amount of albumin in cornea compared to the control group” value [1] was “suppressed increase in the amount of albumin in cornea”.
